Assay results from patent publication US20260183274A1, “PDK1 REGULATORY COMPOUND AND COMPOSITION CONTAINING THE SAME” (PROVIBIO CO., LTD., priority 2024, published 2026).

Key:
[1] = system: T cells isolated from mouse spleens; experiment: T cell proliferation inhibition (CFSE flow cytometry, anti-CD3/anti-CD28 stimulation); assay type: cell-based; details: mouse spleen T cells, 3 days; for inhibition at 0.01 µM / inhibition at 0.1 µM / inhibition at 1 µM / inhibition at 10 µM / inhibition at 30 µM / inhibition at 50 µM: Mus musculus, T-cell, 72 h, read-out: Proliferation inhibition rate (%)
Outline: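 Splenic T cells from 7-week-old C57BL/6 mice were MACS-isolated, CFSE-labelled, seeded at 2×10^5 cells/well and activated with anti-CD3/anti-CD28 (0.5 μg/mL each). Compound at 10 nM–50 μM (six levels, triplicate) was present for 3 days at 37 °C before flow cytometric readout of proliferation inhibition rate.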

[2] = system: Human B Lymphocyte cell line, SU-DHL-8; experiment: Relative cell viability CCK-8, SU-DHL-8; assay type: cell-based; details: for viability at 1 µM / viability at 10 µM / viability at 30 µM / viability at 50 µM: Homo sapiens, SU-DHL-8, 48 h; for viability at 1 µM: read-out: Relative cell viability (%), SU-DHL-8, 1 μM; for viability at 10 µM: read-out: Relative cell viability (%), SU-DHL-8, 10 μM; for viability at 30 µM: read-out: Relative cell viability (%), SU-DHL-8, 30 μM; for viability at 50 µM: read-out: Relative cell viability (%), SU-DHL-8, 50 μM
Protocol: Human-derived B lymphoma cell line SU-DHL-8 (Cat. #CRL-2961) purchased from ATCC was cultured in RPMI-1640 medium containing 10% FBS, 100 U/mL penicillin, and 100 μg/mL streptomycin.
The cell culture medium was then harvested, centrifuged at 1,300 rpm for 5 minutes, and the supernatant was removed. The cells were resuspended in the same medium and dispensed into a 96-well plate (Costar 96-well cell culture plate, Corning) at 90 μL per well, resulting in the conditions specified in Table 5.
Then, 10 μL of CCK-8 was added to each well, and the plates were incubated again at 37° C. in a 5% CO2 incubator for 4 hours.
In other words, when the survival rate of untreated cells (DMSO) is set at 100%, the relative cell survival rate in each group treated with the drug at different concentrations is indicated.

[3] = 48 hours, untreated (DMSO) = 100%
[4] = 1 μM, 48 hours, untreated (DMSO) = 100%
[5] = 10 μM, 48 hours, untreated (DMSO) = 100%
[6] = 30 μM, 48 hours, untreated (DMSO) = 100%
[7] = 50 μM, 48 hours, untreated (DMSO) = 100%

| Structure (SMILES) | inhibition at 0.01 µM ([1]; compound 10 nM) | inhibition at 0.1 µM ([1]; compound 100 nM) | inhibition at 1 µM ([1]; compound 1 μM) | inhibition at 10 µM ([1]; compound 10 μM) | inhibition at 30 µM ([1]; compound 30 μM) | inhibition at 50 µM ([1]; compound 50 μM) | viability at 1 µM [2, 3] | viability at 10 µM [2, 3] | viability at 30 µM [2, 3] | viability at 50 µM [2, 3] | Proliferation inhibition rate (%) ([1]; compound 10 nM) | Proliferation inhibition rate (%) ([1]; compound 100 nM) | Proliferation inhibition rate (%) ([1]; compound 1 μM) | Proliferation inhibition rate (%) ([1]; compound 10 μM) | Proliferation inhibition rate (%) ([1]; compound 30 μM) | Proliferation inhibition rate (%) ([1]; compound 50 μM) | Relative cell viability (%), SU-DHL-8 [2, 4] | Relative cell viability (%), SU-DHL-8 [2, 5] | Relative cell viability (%), SU-DHL-8 [2, 6] | other results |
| --- | --- | --- | --- | --- | --- | --- | --- | --- | --- | --- | --- | --- | --- | --- | --- | --- | --- | --- | --- | --- |
| Nc1ncccc1C(=O)NCCCCCCCCCCCCN1CCCC1 [Compound 20, 2-Amino-N-(12-(pyrrolidin-1-yl)dodecyl)nicotinamide] | 3.46% | 100% | 100% | 100% | 100% | 100% | 7.74% | 5.34% | 4.89% | 3.68% | – | – | – | – | – | – | – | – | – | – |
| CC1CN(CCCCCCCCCCCCNC(=O)c2cccnc2N)CC(C)O1 (stereo not shown) [Compound 21, 2-Amino-N-(12-(2,6-dimethylmorpholino)dodecyl) nicotinamide] | – | – | – | – | – | – | – | – | – | – | −13.87% | 100.00% | 100.00% | 100.00% | 100.00% | 100.00% | 9.64% | 7.68% | 3.70% | – |
| CC1(C)CCN(CCCCCCCCCCCCNC(=O)c2cccnc2N)C1 [Compound 22, 2-Amino-N-(12-(3,3-dimethylpyrrolidin-1-yl)dodecyl) nicotinamide] | – | – | – | – | – | – | – | – | – | – | −0.80% | 100.00% | 100.00% | 100.00% | 100.00% | 100.00% | 6.46% | 2.85% | 2.45% | Relative cell viability (%), SU-DHL-8 [2, 7]: 1.67% |
| CC1CCN(CCCCCCCCCCCCNC(=O)c2cccnc2N)C1 (stereo not shown) [Compound 24, 2-Amino-N-(12-(3-methylpyrrolidin-1-yl)dodecyl) nicotinamide] | – | – | – | – | – | – | – | – | – | – | −7.33% | 100.00% | 100.00% | 100.00% | 100.00% | 100.00% | 8.38% | 1.65% | 0.62% | – |
| Nc1ncccc1C(=O)NCCCCCCCCCCCCN1CCS(=O)(=O)CC1 [Compound 25, 2-Amino-N-(12-(1,1-dioxidothiomorpholino)dodecyl) nicotinamide] | – | – | – | – | – | – | – | – | – | – | −2.67% | 89.43% | 100.00% | 100.00% | 100.00% | 100.00% | 9.73% | 1.26% | 0.11% | Relative cell viability (%), SU-DHL-8 [2, 7]: 0.95% |
| Nc1ncccc1C(=O)NCCCCCCCCCCCCN1CCC(F)C1 (stereo not shown) [Compound 26, 2-Amino-N-(12-(3-fluoropyrrolidin-1-yl)dodecyl) nicotinamide] | – | – | – | – | – | – | – | – | – | – | 2.13% | 100.00% | 100.00% | 100.00% | 100.00% | 100.00% | 1.70% | 1.04% | 0.05% | – |
| Nc1ncccc1C(=O)NCCCCCCCCCCCCN1CCN(Cc2ccc(F)cc2)CC1 [Compound 27, 2-Amino-N-(12-(4-(4-fluorobenzyl)piperazin-1-yl)dodecyl)nicotinamide] | 2.27% | 83.3% | 100% | 100% | 100% | 100% | 6.24% | 4.97% | 2.03% | 0.56% | – | – | – | – | – | – | – | – | – | – |
| COc1ccc(CN2CCN(CCCCCCCCCCCCNC(=O)c3cccnc3N)CC2)cc1 [Compound 28, 2-Amino-N-(12-(4-(4-methoxybenzyl)piperazin-1-yl)dodecyl)nicotinamide] | -0.27% | 100% | 100% | 100% | 100% | 100% | 5.46% | 2.82% | 0.33% | – | – | – | – | – | – | – | – | – | – | Relative cell viability (%), SU-DHL-8 ([2]; human, 48 h, 50 µM): −1.55% |
| CC1C2CCCN2CCN1CCCCCCCCCCCCNC(=O)c1cccnc1N (stereo not shown) [Compound 29, 2-Amino-N-(12-(1-methylhexahydropyrrolo[1,2-a]pyrazin-2 (1H)-yl)dodecyl)nicotinamide] | 4.15% | 100% | 100% | 100% | 100% | 100% | 3.85% | 1.86% | 1.25% | 1.03% | – | – | – | – | – | – | – | – | – | – |
| CC1CN(C(=O)OC(C)(C)C)C(C)CN1CCCCCCCCCCCCNC(=O)c1cccnc1N (stereo not shown) [Compound 30, tert-Butyl 4-(12-(2-aminonicotinamido)dodecyl)-2,5-dimethylpiperazine-1-carboxylate] | 1.34% | 100% | 100% | 100% | 100% | 100% | 7.9% | 2.6% | 1.86% | 1.06% | – | – | – | – | – | – | – | – | – | – |
| COC1CCN(CCCCCCCCCCCCNC(=O)c2cccnc2N)C1 (stereo not shown) [Compound 32, 2-Amino-N-(12-(3-methoxypyrrolidin-1-yl)dodecyl) nicotinamide] | – | – | – | – | – | – | – | – | – | – | – | – | – | – | – | – | – | – | – | Proliferation inhibition rate (%) ([1]; compound 10 nM, listed as PBK-2024-024, 0.01 µM): 0.29%; Relative cell viability (%), SU-DHL-8 ([2]; 1 μM, 48 hours, untreated (DMSO) = 100%, listed as PBK-2024-024, 1 µM): 3.48%; Relative cell viability (%), SU-DHL-8 ([2]; 10 μM, 48 hours, untreated (DMSO) = 100%, listed as PBK-2024-024, 10 µM): 3.01%; Relative cell viability (%), SU-DHL-8 ([2]; 30 μM, 48 hours, untreated (DMSO) = 100%, listed as PBK-2024-024, 30 µM): 1.97%; Relative cell viability (%), SU-DHL-8 ([2]; 50 μM, 48 hours, untreated (DMSO) = 100%, listed as PBK-2024-024, 50 µM): 1.45% |
| CN(C)CCN1CCN(CCCCCCCCCCCCNC(=O)c2cccnc2N)CC1 [Compound 33, 2-Amino-N-(12-(4-(2-(dimethylamino)ethyl)piperazin-1-yl)dodecyl)nicotinamide] | -36% | 100% | 100% | 100% | 100% | 100% | 10.1% | 4.32% | 3.35% | 2.66% | – | – | – | – | – | – | – | – | – | – |
| CC1CNCCN1CCCCCCCCCCCCNC(=O)c1cccnc1N (stereo not shown) [Compound 35, 2-Amino-N-(12-(2-methylpiperazin-1-yl)dodecyl) nicotinamide] | – | – | – | – | – | – | – | – | – | – | 8.33% | 100.00% | 100.00% | 100.00% | 100.00% | 100.00% | 1.18% | 0.64% | 0.42% | – |
